Drawing on patent US20020182260A1, “Anti-inflammatory agents and methods for their preparation and use” (Cellegy Pharmaceuticals, Inc., priority 1998, published 2002), this text covers IC50 for 3 molecules.

Like-named read-outs stand apart in the source and are kept apart here.

Common to all, as to format: cell-based
The test system of test [1] is B-lymphocytes isolated from mouse spleen. Kind of test: B-lymphocyte proliferation assay (LPS, [3H]thymidine incorporation). Particulars: B-cell, read-out: IC50, suppression of B-cell proliferation. Here is the method:
B-lymphocytes were isolated from mouse spleen by standard methods, and suspended in DMEM. A total of 10^6 cells/ml were incubated overnight at 37° C. in the presence of 1 μg/ml lipopolysaccharide (LPS) to assess stimulation (positive score, related to control) or suppression (negative score, related to control) of cell proliferation. Test substances were evaluated under these conditions at a pre-defined concentration. After overnight incubation, 2 μCi [^3H]thymidine was added to each well. Cells were harvested. after an additional 48 hours incubation, and thymidine incorporation assessed by liquid scintillation counting.
(In general: Dividing cells build labelled thymidine or BrdU into new DNA.)

Test [2] relates to T-lymphocytes isolated from mouse thymus. Kind of test: T-lymphocyte proliferation assay (Con A, [3H]thymidine incorporation). As to conditions: read-out: IC50, suppression of T-cell proliferation. Here is the method: T-lymphocytes were isolated from mouse thymus by standard methods, and suspended in DMEM (see, e.g., Mishell B B and Shiigi S M, eds., “Cell Proliferation” in Selected Methods in Cellular Immunology, V, XXIX, W. H. Freeman Co., San Francisco, Calif. pp. 153-160, 1980 and Dayton et al. (1992) Mol. Pharmacol. 41: 671-676). A total of 5×10^6 cells/ml were incubated overnight at 37° C. in the presence of 3 μg/ml Con A to assess stimulation (positive score, related to 10 U/ml of rat interleukin-2) or suppression (negative score, related to control) of cell proliferation. Test substances were evaluated under these conditions at a pre-defined concentration. After overnight incubation, 2 μCi [^3H]thymidine was added to each well. Cells were harvested after an additional 48 hours incubation, and thymidine incorporation assessed by liquid scintillation counting.
All 40 fractions were subsequently tested in the ConA-induced T-cell proliferation assay, the same assay described in Example 4. Fractions providing greater than or equal to 40% suppression are considered active.

Test [3] deals with IL-2 production from human PBMC. Kind of test: inhibition of PHA-stimulated IL-2 production. Particulars: PHA 20 μg/mL, 48 hours, positive control. Here is the method: In this example, the ability of lanolin fractions to inhibit PHA-stimulated IL-2 production from human peripheral blood mononuclear cells (PBMCs) was assayed. IL-2 production from human PBMC was stimulated by phytohemagglutanin (20 μg/mL) based on a procedure described by Konno et al. (Konno S. I. et al. “Inhibition of Cytokine Production from Human Peripheral Blood Leukocytes by Anti-allergic Agents in vitro.” Eur. J. Pharmacol, 264:265-268, 1994) wherein IL-2 levels were measured 48 hours post-stimulation with a commercially available enzyme-immuno assay (EIA) kit and spectrophotometric measurements were performed with a microplate reader (MRX, Dynatech.) The various compositions of the present invention were tested at final concentrations of […], in duplicate. Dexamethasone was used as the positive control in these studies; the IC50 of dexamethasone was 5 nM. The levels of suppression caused by the test compounds are expressed as the percent decrease relative to the vehicle control values.

Test [4] has as its system TNF-α production by human PBMCs. Kind of test: inhibition of LPS-stimulated TNF-α production. As to conditions: PBMC, LPS 1 μg/mL, 24 hours, positive control. The procedure:
TNF-α production by human PBMCs was stimulated using lipopolysaccharide (1 μg/mL) based on a procedure by Schindler et al. (Schindler R et al. Correlations and Interactions in the Production of Interleukin (IL)-6, IL-1, and Tumor Necrosis Factor (TNF) in Human Blood Mononuclear Cells: IL-6 Suppresses IL-1 and TNF. Blood, 75:40-47, 1990). The levels of TNF-α were measured 24 hours following LPS stimulation with a commercially available enzyme-immuno assay (EIA) kit and spectrophotometric measurements were performed with a microplate reader (MRX, Dynatech). The compositions of the present invention were tested in this study were 1, 10, and 50 μg/mL in duplicate. […] The suppression caused by test compounds is expressed as the percent decrease relative to the vehicle control value.

For `Cn1cnc([N+](=O)[O-])c1Sc1ncnc2nc[nH]c12` [azathioprine], the IC50 in test [1] (compounds known to suppress) and in test [2] (positive controls) was more than 10 µM in each case.

On to `O=P1(N(CCCl)CCCl)NCCCO1` (stereo not drawn) [cyclophosphamide], for which the IC50 in test [1] and in test [2] was more than 10 µM each time.

As for `C[C@@H]1C[C@H]2[C@@H]3CCC4=CC(=O)C=C[C@]4(C)[C@@]3(F)[C@@H](O)C[C@]2(C)[C@@]1(O)C(=O)CO` [dexamethasone], the IC50 in test [3] was 0.005 µM; in test [4] it was approximately 0.016 µM.
